In the METLIN SMRT retention time set (Domingo-Almenara et al. 2019) one finds RP-LC retention time data, which are given here for 32 compounds.

The nature of this data set: gradient 5% acetonitrile 3 min, to 50% in 2 min, to 85% in 15 min, held 3 min, 100 µL/min. Conditions: column: Zorbax Extend-C18 2.1 x 50 mm; eluents: water / acetonitrile, 0.1% formic acid. The essentials:
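Mixtures of ~100 pure standards were chromatographed on a Zorbax Extend-C18 column (2.1 × 50 mm, 1.8 μm) at 100 μL/min using water and acetonitrile, each with 0.1% formic acid. Detection used a quadrupole time-of-flight mass spectrometer in positive and negative ionization mode, and data collection spanned 3 months. Retention time was obtained from adduct peaks picked computationally and each checked manually.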
`CCN(CC)CCNC(=O)CCC(=O)N1CCc2c(c(C(=O)N3CCCC3)nn2C)C1` came in with an RP-LC retention time of 578 s.

Take `COc1cccc(-c2cc(C(=O)N3CC(c4nc(-c5cccs5)no4)C3)[nH]n2)c1`: the RP-LC retention time came out at 798 s.

As for `CCN(CC)CCCNC(=O)C1CCCN(c2ncc(-c3ccc(F)cc3)cn2)C1` (configuration not stated), the RP-LC retention time was determined as 668 s.

On to `Cc1csc(-c2cc(S(=O)(=O)N3CCC(Cc4ccccc4)CC3)c(C)n2C)n1`, for which the RP-LC retention time came out at 1300 s.

The compound `COc1ccc(-c2nnc(-c3cccnc3NCc3cc(OC)cc(OC)c3)o2)cc1` showed an RP-LC retention time of 1160 s.

On to `Cc1cccc(N2CCN([C@H]3CS(=O)(=O)C[C@@H]3S(=O)(=O)c3ccc(F)cc3)CC2)c1`, for which the RP-LC retention time was found to be 941 s.

Consider `O=C(NCc1cccc(F)c1)C1CCN(c2cnc(N3CCSCC3)nc2)CC1`, for which the RP-LC retention time stood at 793 s.

The compound `CCN1CCN(CCNC(=O)Cc2cccn2-c2ccc(Cl)cc2)CC1` showed an RP-LC retention time of 612 s.

Compound `CN(CCOc1ccc(CC2SC(=O)NC2=O)cc1)c1ccccn1` (configuration not stated) had an RP-LC retention time of 628 s.

Regarding `O=C(NCc1ccccc1)N1CCCC1c1nc(-c2ccccc2)n[nH]1` (configuration not stated), the RP-LC retention time amounted to 731 s.

`O=C(NC1CC1)[C@@H]1C[C@H](Oc2ccccc2)CN1C(=O)CCCc1c[nH]c2ccccc12` registered an RP-LC retention time of 834 s.

As to `COc1ccc(S(=O)(=O)N2CCCC(C(=O)NCCc3ccc(OC)c(OC)c3)C2)cc1C` (configuration not stated), the RP-LC retention time was 870 s.

`CCC(=O)Nc1ccc(OCc2cc(C(=O)NC3CCC(C)CC3)no2)cc1` (configuration not stated) registered an RP-LC retention time of 601 s.

With `CC1CCN(C(=O)C2=CN(c3cc(F)cc(F)c3)c3ccccc3S2(=O)=O)CC1`, the RP-LC retention time turned out to be 945 s.

`COc1ccc(-c2noc(C3CC(=O)N(c4ccc(C)c(C)c4)C3)n2)c(OC)c1` (configuration not stated) registered an RP-LC retention time of 932 s.

In turn, `COCCNC(=O)c1ccc(OC2CCN(CC(c3ccccc3)c3ccccc3)CC2)c(OC)c1` had an RP-LC retention time of 680 s.

The compound `CCOc1ccc2nc(NC(=O)C3CCCN3S(=O)(=O)c3cc(C(=O)OC)n(C)c3)sc2c1` (configuration not stated) showed an RP-LC retention time of 976 s.

`CC1CCN(CCNC(=O)C2CCN(S(=O)(=O)c3ccc4c(c3)sc(=O)n4C)CC2)CC1`: the RP-LC retention time was 622 s.

In turn, `CCOC(=O)c1c(S(=O)(=O)N2CCC(C(=O)NCc3ccco3)CC2)c(C)n(C)c1C` returned an RP-LC retention time of 740 s.

In turn, `COC(=O)c1ccc2c(=O)n(-c3cc(C)cc(C)c3)c(N3CCC(C)CC3)nc2c1` registered an RP-LC retention time of 1420 s.

The compound `Cn1c(=O)c2cc(C(=O)Nc3ccccc3Cl)cnc2n(-c2ccccc2)c1=O` registered an RP-LC retention time of 882 s.

Compound `O=c1n(Cc2ccccc2F)nc2c(S(=O)(=O)N3CCc4ccccc4C3)cccn12` registered an RP-LC retention time of 947 s.

Regarding `CCOC(=O)c1cc(C2CC2)nc2c1c(=O)n(Cc1ccc(C)cc1)c(=O)n2C`, the RP-LC retention time was 1260 s.

Compound `Cc1nccn1Cc1noc(-c2ccc(Cl)cc2)n1` registered an RP-LC retention time of 638 s.

In the case of `CCCCOC(=O)c1cccnc1`, the RP-LC retention time worked out at 874 s.

The compound `O=C(CSCc1cnn(-c2ccccc2)c1-n1cccc1)N1CCN(c2ccccn2)CC1` had an RP-LC retention time of 690 s.

Compound `O=C(C1CC1)N1CCc2sc(S(=O)(=O)Nc3cccc(F)c3)cc2C1` displayed an RP-LC retention time of 829 s.

`CCC(=O)N1CCc2cc(N3CC(C(=O)Nc4ccc(C)cc4F)CC3=O)ccc21` (configuration not stated) returned an RP-LC retention time of 778 s.

For `COCc1cc(=O)n(CC(=O)NCc2ccc(F)c(Cl)c2)c(N)n1`, the RP-LC retention time was 625 s.

Compound `COC(=O)c1cccc(NC(=O)CSc2nccc(N3CCN(c4ccccc4OC)CC3)n2)c1` showed an RP-LC retention time of 695 s.

Turning to `Cn1nc(-c2ccccc2)c2ccccc2c1=O`, the RP-LC retention time is 799 s.

`O=C(NCCc1c[nH]c2ccccc12)c1ccc(N2C(=O)CCS2(=O)=O)cc1Cl` had an RP-LC retention time of 777 s.
